Measurements published in US5986074A, “Metal chelates as pharmaceutical imaging agents, processes of making such and uses thereof” (Emory University, priority 1997, dated 1999).
Read-outs that look alike come from different tables or passages of the source.

Experiments:
[1] = Stability of thiourea chelates; type: physicochemical
[2] = Biodistribution in normal rats (Table 1); type: in vivo, rat; settings: for Bladder, percent of total activity / Carcass, percent of total activity / Intestines, percent of total activity / Kidneys, percent of total activity / Liver, percent of total activity / Stomach, percent of total activity: normal rats
Method: Tracheostomy was performed in an anesthetized rat and the left jugular vein was cannulated with one piece of PE-50 tubing for injection of the ^99m Tc radiopharmaceutical. The bladder was catheterized utilizing heat flared PE-50 tubing for urine collection. […] Each animal was sacrificed at the conclusion of the dynamic study and simultaneous static images of the isolated lungs, heart, liver, spleen, stomach, kidneys, bowel and bladder with urine were acquired as well as a static image of the rat carcass without the organs. Total counts for the injected dose were determined from the sum of the isolated organ counts and the carcass counts decay corrected to the time of organ imaging. Regions of interest were drawn around each organ to determine the percent injected dose in each organ.

kidney = test: Renal clearance and extraction efficiency in rats; type: in vivo, rat; settings: technetium or rhenium chelate
Method: Clearance was determined by averaging three clearances based on three successive 10 minute urine collections. Clearance=UV/P where U is the urine concentration, V is the urine volume, and P is the plasma concentration. To measure extraction efficiency (EE), a left renal venous blood (0.5 ml) sample was obtained followed by a 3-ml carotid arterial sample. Both blood samples were centrifuged within 5 minutes to obtain a plasma sample. The extraction efficiency was calculated by measuring the difference between the arterial and venous blood sample: EE=(arterial concentration--venous concentrationlarterial concentration). Plasma protein binding (PPB) was determined by ultracentrifugation (Centrifree, Amicon, Inc., Beverly, Mass., micropartition system) of 1 ml arterial plasma. PPB=[1.0-(ultrafiltrate concentration/plasma concentration)]×100.

[3] = Ionic forms at physiological pH; type: physicochemical
[4] = Normal volunteer studies: plasma clearance, urinary excretion, imaging; type: in vivo, human; settings: humans; for Clearance rate (EC/OIH): relative to coinjected OIH
Method: ^99m Tc LL-EC, DD-EC and DL-EC were each evaluated in three normal male volunteers. The HPLC purified complexes and phosphate-buffered saline (pH 7.0) were passed through a SEP-PAK Plus C18 cartridge (primed with 1 ml ethanol) and a sterile Millex-GS 0.22 μm filter unit into a sterile, pyrogen-free empty vial. The final concentration was ~2.0 mCi/2.5 ml and the final pH ranged from 5.7 to 7.4. Test samples of each complex were sterile and pyrogen free. Approximately 2 mCi of each ^99m Tc complex were coinjected with 200 μCi of I-131 OIH and plasma samples were obtained at 5, 10, 15, 20, 30 45, 60 and 90 minutes post injection. The plasma clearances of 1-131 OIH and each EC complex were determined using the single injection, two-compartment model of Sapirstein et al., (1955) Am. J. Physiol. 181: 330-336. The volunteers voided at 30, 90 and 180 minutes post injection to determine the percent dose in the urine at each time period. A urine sample from the 30 minute urine collection was obtained for HPLC analysis from one of the normal volunteers and analyzed for each complex. One volunteer was imaged with each complex using a simultaneous acquisition with a 20% window centered over the 363 KeV photopeak of I-131 and a second 20% window over the 140 KeV photopeak of ^99m Tc. Data were acquired in a 128×128 matrix using a three phase dynamic acquisition: phase 1 consisted of 24 two second frames, phase 2 consisted of 16 fifteen second frames and phase 3 consisted of 40 thirty second frames. Data were acquired using a general Electric (Milwaukee, Wis.) Star-Cam computer fitted with a high energy collimator. All studies were performed with the approval of the Human Investigations Committee and a signed consent form was obtained.

plasma protein = settings: cited from earlier work
[5] = mice and baboons; cited from earlier work
[6] = cited from earlier work
kidneys = settings: in vivo; cited from earlier work
[7] = cited from earlier work; remark: listed apart in the source
[8] = mice, baboons, volunteers; cited from earlier work
brain = settings: in vivo; cited from earlier work
[9] = cited from earlier work; remark: listed apart in the source

CC(C)(S)C(=O)NCCCNC(=S)NCCC(=O)O [(Me)2 -TAPTU-EtCOOH, dimethylthioacetamidepropylthiourea-ethylCOOH]
Stability compared with the corresponding thioacetamidethiourea derivative [1]: greater stability than the corresponding thioacetamide-thiourea derivative
Stability compared with the corresponding thioacetamidethiourea derivative ([1]; listed as dimethyl-TAPTU-EtCOOH): appeared to be more stable than the corresponding thioacetamidethiourea derivative

O=C(O)[C@@H](CS)NCCN[C@H](CS)C(=O)O [D,D-EC, D,D-ethylenedicysteine]
Bladder, percent of total activity ([2]; 22 minutes post injection): 63.2% of total activity
Carcass, percent of total activity ([2]; 22 minutes post injection): 25.4% of total activity
Intestines, percent of total activity ([2]; 22 minutes post injection): 2.6% of total activity
Kidneys, percent of total activity ([2]; 22 minutes post injection): 5.4% of total activity
Liver, percent of total activity ([2]; 22 minutes post injection): 2.9% of total activity
Stomach, percent of total activity ([2]; 22 minutes post injection): < 1% of total activity
Removal/excretion by the kidneys, in words ([2]; rats): more rapid renal clearance than ^99m Tc MAG3
Removal/excretion by the kidneys, in words ([2]; rats, listed as 99m Tc-D,D-EC): superior to L,L-EC in rats
Renal clearance, in words (kidney): significantly higher than that of its LL-isomer and than that of ^99m Tc MAG3
Dianionic form at physiological pH [3]: 80%
Monoanionic form at physiological pH [3]: 20%
Clearance rate (EC/OIH) [4]: 82±8%

O=C(O)C(CS)NCCNC(CS)C(=O)O (stereo not drawn) [EC, ethylene dicysteine]
Protein binding characteristics (plasma protein): favorable protein binding characteristics

O=C([O-])[C@H](C[S-])NCCN[C@@H](CS)C(=O)[O-].[O]=[Tc+3] [L,L-EC, L,L-ethylenedicysteine]
Comparison with ^99m Tc DD-EC [5]: superior to the enantiomer ^99m Tc DD-EC
Pharmacokinetic properties compared with OIH and MAG3 [5]: more closely approached those of OIH than the properties of MAG3
Bladder, percent of total activity ([2]; 22 minutes post injection): 45.6% of total activity
Carcass, percent of total activity ([2]; 22 minutes post injection): 22.6% of total activity
Intestines, percent of total activity ([2]; 22 minutes post injection): 1.8% of total activity
Kidneys, percent of total activity ([2]; 22 minutes post injection): 24.4% of total activity
Liver, percent of total activity ([2]; 22 minutes post injection): 4.5% of total activity
Stomach, percent of total activity ([2]; 22 minutes post injection): < 1% of total activity
Dianionic form at physiological pH [3]: 80%
Monoanionic form at physiological pH [3]: 20%
Clearance rate (EC/OIH) [4]: 70±3%

O=C(O)CNC(=O)CNC(=O)CNC(=O)CS [MAG3, mercaptoacetyltriglycine]
Bladder, percent of total activity ([2]; 22 minutes post injection): 57% of total activity
Carcass, percent of total activity ([2]; 22 minutes post injection): 14% of total activity
Intestines, percent of total activity ([2]; 22 minutes post injection): 5% of total activity
Kidneys, percent of total activity ([2]; 22 minutes post injection): 23% of total activity
Liver, percent of total activity ([2]; 22 minutes post injection): 1% of total activity
Stomach, percent of total activity ([2]; 22 minutes post injection): < 1% of total activity
Clearance compared to DTPA ([6]; in vivo): higher clearance of MAG3 compared to DTPA
Clearance relative to OIH ([6]; percent of OIH clearance): 50-60%
Extraction rate (kidneys): favorably high extraction rate
Transport into the small intestine via the hepatobiliary system ([7]; normal volunteers): a small percentage
Transport into the small intestine via the hepatobiliary system ([7]; patients with renal failure): this percentage increases in patients with renal failure
Plasma-protein binding, in words (plasma protein): very high

C[C@H](NC(=O)CNC(=O)CS)C(=O)NCC(=O)O [MAGAG, mercaptoacetylglycylalanylglycine]
Comparison with ^99m Tc MAG3 [8]: one diastereomer comparable and the other considerably inferior

O=C(O)CNC(=O)c1ccccc1[131I] [OIH, ^131 I-orthohippurate]
Clearance relative to p-aminohippuric acid (PAH) ([6]; percent of PAH clearance): 83%

D,L-ethylenedicysteine [DL-EC]
Rate of excretion in the urine [4]: had a slower rate of excretion
Clearance rate (EC/OIH) [4]: 40±5%

L-cysteinylethylenepyridine carboxamide [L-CEPIC]
Bladder, percent of total activity ([2]; 30 minutes post injection): 58.2% of total activity
Carcass, percent of total activity ([2]; 30 minutes post injection): 19.8% of total activity
Intestines, percent of total activity ([2]; 30 minutes post injection): 6.4% of total activity
Kidneys, percent of total activity ([2]; 30 minutes post injection): 7.2% of total activity
Liver, percent of total activity ([2]; 30 minutes post injection): 4.8% of total activity
Stomach, percent of total activity ([2]; 30 minutes post injection): 1.9% of total activity
Removal/excretion by the kidneys, in words ([2]; rats): rapid and selective removal of the test compounds by the kidneys
Uptake in other major organs ([2]; rats): only trace amounts being taken up in other major organs
Removal/excretion by the kidneys, in words ([2]; rats, listed as 99m Tc-CEPIC): even more rapidly excreted by the kidneys than ^99m Tc MAG3
Renal clearance, in words (kidney): renal clearance efficiency similar to that of ^99m Tc MAG3

^99m Tc L,L-ethylenedicysteine diethyl ester [^99m Tc LL-ECD]
Brain perfusion (brain): good brain perfusion agent

^99m Tc mercaptoacetyl-glycylglycyl-taurine
Comparison with ^99m Tc MAG3 in dogs [9]: inferior to ^99m Tc MAG3 in dogs

thioacetamidethiourea-ethylCOOH [TATU-EtCOOH]
Renal clearance, in words (kidney): superior renal clearance in rats when compared to a corresponding metal chelate with MAG3

thioacetamidethiourea-para-phenylCOOH [TATU-pPhCOOH]
Renal clearance, in words (kidney): cleared at a moderate rate by the kidneys in rat
Renal clearance, in words (kidney; listed as TATU-pPh): cleared at a moderate rate
